# Where two headings read alike, the source gives them in different places.
# Key:
# [1] = both, human, microsomes, 2 μM, pH 7.4
# in vitro [2] = assay type: cell-based; conditions: human
# Procedure: (§1) The cytotoxicity of SB107 was determined by measuring […], THP-1, HepG2, and HK-2 cell viability after 3 days in the presence of SB107 in a 384-well plate format. SB107 was prepared as 10-point serial dilutions in DMSO, with the highest concentration at 30 μM. Assay plates were incubated for 3 days at 37° C., 5% CO2 and relative luminescent units (RLU) were measured using the CellTiter-Glo® Luminescent Cell Viability Assay. The dose response curve was fitted using the Levenberg-Marquardt algorithm.
# CYP2E1 = target: T1, CYP2E1 (Homo sapiens, UniProt P05181); experiment: in vitro; assay type: in vitro ADME; conditions: both sexes, microsomes, read-out: % Inhibition 2E1
# T1 construct: using pooled male and female human liver microsomes; from tissue; host or cells: pooled human liver microsomes
# Procedure: (§2) The potential for inhibtion of CYP enzymes (CYP1A2, CYP2A6, CYP2B6, CYP2C8, CYP2C9, CYP2C19, CYP2D6, CYP2E1 and CYP3A4) by 107 at 10 μM were using pooled male and female human liver microsomes, Freshly plated human microsomes with substrate to each CYP enzyme was treated with 107 for 5-20 min. The concentrations of marker metabolites of known substrates were determined by LCMS analysis.
# (§3) The inhibition of CYP enzymes by 107 was evaluated in human liver microsomes (Table 11).
# CYP2C9 = target: T2, CYP2C9 (Homo sapiens, UniProt P11712); experiment: in vitro; assay type: in vitro ADME; conditions: both sexes, microsomes, read-out: % Inhibition 2C9
# T2 construct: using pooled male and female human liver microsomes; from tissue; host or cells: pooled human liver microsomes
# Procedure: as §2, §3
# CYP2A6 = target: T3, CYP2A6 (Homo sapiens, UniProt P11509); experiment: in vitro; assay type: in vitro ADME; conditions: both sexes, microsomes, read-out: % Inhibition 2A6
# T3 construct: using pooled male and female human liver microsomes; from tissue; host or cells: pooled human liver microsomes
# Procedure: as §2, §3
# CYP2C19 = target: T4, CYP2C19 (Homo sapiens, UniProt P33261); experiment: in vitro; assay type: in vitro ADME; conditions: both sexes, microsomes, read-out: % Inhibition 2C19
# T4 construct: using pooled male and female human liver microsomes; from tissue; host or cells: pooled human liver microsomes
# Procedure: as §2, §3
# CYP2D6 = target: T5, CYP2D6 (Homo sapiens, UniProt P10635); experiment: in vitro; assay type: in vitro ADME; conditions: both sexes, microsomes, read-out: % Inhibition 2D6
# T5 construct: using pooled male and female human liver microsomes; from tissue; host or cells: pooled human liver microsomes
# Procedure: as §2, §3
# CYP2B6 = target: T6, CYP2B6 (Homo sapiens, UniProt P20813); experiment: in vitro; assay type: in vitro ADME; conditions: both sexes, microsomes, read-out: % Inhibition 2B6
# T6 construct: using pooled male and female human liver microsomes; from tissue; host or cells: pooled human liver microsomes
# Procedure: as §2, §3
# CYP2C8 = target: T7, CYP2C8 (Homo sapiens, UniProt P10632); experiment: in vitro; assay type: in vitro ADME; conditions: both sexes, microsomes, read-out: % Inhibition 2C8
# T7 construct: using pooled male and female human liver microsomes; from tissue; host or cells: pooled human liver microsomes
# Procedure: as §2, §3
# CYP1A2 = target: T8, CYP1A2 (Homo sapiens, UniProt P05177); experiment: in vitro; assay type: in vitro ADME; conditions: both sexes, microsomes, read-out: % Inhibition 1A2
# T8 construct: using pooled male and female human liver microsomes; from tissue; host or cells: pooled human liver microsomes
# Procedure: as §2, §3
# in vitro [3] = assay type: cell-based; conditions: human; remark: listed apart in the source
# Procedure: as §1
# [4] = tested on: M. tuberculosis constitutively expressing the luxABCDE operon; experiment: microbe, parasite or virus in culture; assay type: cell-based
# M. tuberculosis = experiment: Minimum Bactericidal Concentration (MBC); assay type: cell-based; conditions: Mycobacterium tuberculosis; INH with 60 μM 107; read-out: MBC of INH
# in vitro [5] = assay type: in vitro ADME; conditions: human
# Procedure: (§4) Caco-2 cells were diluted to 6.86×10^6 cells/mL, dispensed into a 96-well HTS Transwell plate, and cultured for 14 to 18 days. 6-azasteroids at 5 μM was incubated at 37° C. for 2 hours with the Caco-2 cell monolayer in HBSS buffer (10 mM HEPES, pH 7.4) containing 5% BSA. Aliquots from donor sides (apical compartment for Ap→Bl flux, and basolateral compartment for Bl→Ap) and receiver sides (basolateral compartment for Ap→Bl flux, and apical compartment for Bl→Ap) were separated and extracted by acetonitrile or methanol containing appropriate internal standards (IS). The concentration of 6-azasteroid was determined by LC-MS/MS analysis.
# (§5) Elution rate: 0.65 mL/min.
# (§6) To predict absorption via oral administration, Caco-2 bidirectional permeability assay was performed (Table 8).
# Caco-2 cell line = experiment: in vitro; assay type: in vitro ADME; conditions: human, Caco-2, 2 h, 5 μM, pH 7.4
# Procedure: as §4, §5, §6
# in vivo [6] = conditions: male, CD-1, mouse
# in vitro [7] = assay type: cell-based; conditions: human; remark: listed apart in the source
# Procedure: as §1
# in vivo [8] = conditions: male, CD-1, mouse; remark: listed apart in the source
# CYP3A4 = target: T9, CYP3A4 (Homo sapiens, UniProt P08684); experiment: Inhibition of CYPs in human liver microsomes, CYP3A4; assay type: in vitro ADME; conditions: for inhibition at 10 µM: both sexes, human, microsomes
# T9 construct: using pooled male and female human liver microsomes; from tissue; host or cells: pooled human liver microsomes
# Procedure: as §2, §3
# [9] = Metabolic stability in human liver microsomes; conditions: both, pH 7.4
# in vitro [10] = assay type: cell-based; conditions: human; remark: listed apart in the source
# Procedure: as §1
# in vitro [11] = conditions: both, human, microsomes, pH 7.4
# hERG = target: T10, hERG (Homo sapiens, UniProt Q12809); experiment: hERG assay (hERG currents in HEK 293 cells); assay type: cell-based
# T10 construct: expressed in transfected cells
# Procedure: hERG stably expressed HEK 293 cells were seeded at 5×10^5 cells/per 6 cm cell culture dish and induced with doxycycline at 1 μg/mL for 48 hours. Compound at the final concentrations of 30, 10, 3.33, 1.11 and 0.37 μM was applied to the cells accumulatively, post-compound hERG currents were recorded, and IC50 was calculated. Dofetilide was used as a positive control.
# To predict the potential cardiotoxic effects of 6-azastroids, human ether-a-go-go related gene (hERG) assay was applied to 100, 107 and 114 (Table 9). Cytotoxicity of 107 was also assessed (Table 10).
# Mtb = experiment: Isoniazid MIC shift on Mtb MIC plates (broth microdilution MIC); assay type: cell-based, M. tuberculosis
# [12] = Pharmacokinetics and bioavailability in plasma; conditions: male, CD-1, mouse
# T10 sequence (Q12809 whole entry): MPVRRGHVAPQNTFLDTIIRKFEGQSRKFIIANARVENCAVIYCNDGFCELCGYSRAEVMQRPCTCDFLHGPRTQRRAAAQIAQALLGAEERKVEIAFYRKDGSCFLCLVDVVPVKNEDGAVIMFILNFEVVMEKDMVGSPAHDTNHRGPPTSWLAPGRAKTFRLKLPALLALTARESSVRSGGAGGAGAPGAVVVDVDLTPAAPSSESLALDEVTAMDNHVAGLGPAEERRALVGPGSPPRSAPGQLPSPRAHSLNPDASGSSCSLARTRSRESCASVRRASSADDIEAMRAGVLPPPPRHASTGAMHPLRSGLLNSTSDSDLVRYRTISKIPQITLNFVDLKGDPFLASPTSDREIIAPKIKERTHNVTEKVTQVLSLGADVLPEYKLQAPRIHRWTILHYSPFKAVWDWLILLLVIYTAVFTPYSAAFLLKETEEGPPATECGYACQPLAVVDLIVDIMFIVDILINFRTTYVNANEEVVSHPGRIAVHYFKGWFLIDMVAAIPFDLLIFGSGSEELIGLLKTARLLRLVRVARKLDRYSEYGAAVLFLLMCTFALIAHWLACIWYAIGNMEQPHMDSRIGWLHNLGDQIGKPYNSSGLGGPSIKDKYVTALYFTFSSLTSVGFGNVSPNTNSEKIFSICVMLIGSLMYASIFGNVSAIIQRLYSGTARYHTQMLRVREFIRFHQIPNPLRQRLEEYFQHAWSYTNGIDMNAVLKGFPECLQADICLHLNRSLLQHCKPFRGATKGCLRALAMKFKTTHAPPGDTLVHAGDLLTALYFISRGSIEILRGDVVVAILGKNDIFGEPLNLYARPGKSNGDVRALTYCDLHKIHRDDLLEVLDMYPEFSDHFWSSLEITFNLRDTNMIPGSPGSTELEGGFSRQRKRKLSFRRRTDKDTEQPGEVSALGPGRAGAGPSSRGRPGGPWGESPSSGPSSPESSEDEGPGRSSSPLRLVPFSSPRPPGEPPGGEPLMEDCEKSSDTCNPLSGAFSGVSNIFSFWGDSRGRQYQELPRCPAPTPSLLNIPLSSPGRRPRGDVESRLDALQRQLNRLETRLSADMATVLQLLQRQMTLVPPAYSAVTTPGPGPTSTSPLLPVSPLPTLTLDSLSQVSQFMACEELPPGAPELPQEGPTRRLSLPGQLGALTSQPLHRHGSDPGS
# T9 sequence (P08684 whole entry): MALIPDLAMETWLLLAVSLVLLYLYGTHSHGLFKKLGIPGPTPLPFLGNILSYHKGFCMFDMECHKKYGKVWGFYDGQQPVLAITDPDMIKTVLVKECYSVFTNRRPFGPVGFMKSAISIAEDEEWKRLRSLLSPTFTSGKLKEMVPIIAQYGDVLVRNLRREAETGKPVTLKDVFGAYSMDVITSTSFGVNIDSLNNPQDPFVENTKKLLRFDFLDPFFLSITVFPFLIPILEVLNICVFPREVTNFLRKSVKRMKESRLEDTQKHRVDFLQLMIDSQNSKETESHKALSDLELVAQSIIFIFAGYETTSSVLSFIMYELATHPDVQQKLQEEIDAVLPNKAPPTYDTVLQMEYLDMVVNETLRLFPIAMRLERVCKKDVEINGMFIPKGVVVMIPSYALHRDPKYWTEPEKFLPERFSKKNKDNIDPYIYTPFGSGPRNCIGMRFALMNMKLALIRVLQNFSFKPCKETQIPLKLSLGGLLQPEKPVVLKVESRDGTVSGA
# T6 sequence (P20813 whole entry): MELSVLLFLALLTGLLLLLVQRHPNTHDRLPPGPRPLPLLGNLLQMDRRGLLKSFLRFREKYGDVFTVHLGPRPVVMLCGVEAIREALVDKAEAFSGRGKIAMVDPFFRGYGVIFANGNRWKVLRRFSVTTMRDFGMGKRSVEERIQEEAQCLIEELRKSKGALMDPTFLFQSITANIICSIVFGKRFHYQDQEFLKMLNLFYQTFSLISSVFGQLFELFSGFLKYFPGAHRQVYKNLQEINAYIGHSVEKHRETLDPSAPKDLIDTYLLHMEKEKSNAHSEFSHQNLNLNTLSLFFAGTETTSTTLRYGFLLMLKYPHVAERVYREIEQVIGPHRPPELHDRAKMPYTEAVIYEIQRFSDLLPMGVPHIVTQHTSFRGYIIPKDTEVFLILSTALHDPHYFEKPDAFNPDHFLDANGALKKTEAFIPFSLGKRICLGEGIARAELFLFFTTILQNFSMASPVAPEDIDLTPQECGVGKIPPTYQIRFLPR
# T2 sequence (P11712 whole entry): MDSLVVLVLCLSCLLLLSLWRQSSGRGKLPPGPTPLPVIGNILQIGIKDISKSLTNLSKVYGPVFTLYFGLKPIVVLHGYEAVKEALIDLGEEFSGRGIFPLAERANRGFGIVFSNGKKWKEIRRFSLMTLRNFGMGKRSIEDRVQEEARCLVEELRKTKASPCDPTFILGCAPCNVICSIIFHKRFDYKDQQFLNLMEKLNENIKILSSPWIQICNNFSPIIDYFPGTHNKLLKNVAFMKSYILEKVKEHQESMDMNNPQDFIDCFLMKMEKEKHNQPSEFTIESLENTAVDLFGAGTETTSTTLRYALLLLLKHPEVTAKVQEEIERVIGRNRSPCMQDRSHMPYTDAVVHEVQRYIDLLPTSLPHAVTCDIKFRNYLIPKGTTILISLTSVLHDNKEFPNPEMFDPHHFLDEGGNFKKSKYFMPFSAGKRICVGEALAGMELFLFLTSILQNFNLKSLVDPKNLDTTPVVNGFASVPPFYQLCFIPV
# T1 sequence (P05181 whole entry): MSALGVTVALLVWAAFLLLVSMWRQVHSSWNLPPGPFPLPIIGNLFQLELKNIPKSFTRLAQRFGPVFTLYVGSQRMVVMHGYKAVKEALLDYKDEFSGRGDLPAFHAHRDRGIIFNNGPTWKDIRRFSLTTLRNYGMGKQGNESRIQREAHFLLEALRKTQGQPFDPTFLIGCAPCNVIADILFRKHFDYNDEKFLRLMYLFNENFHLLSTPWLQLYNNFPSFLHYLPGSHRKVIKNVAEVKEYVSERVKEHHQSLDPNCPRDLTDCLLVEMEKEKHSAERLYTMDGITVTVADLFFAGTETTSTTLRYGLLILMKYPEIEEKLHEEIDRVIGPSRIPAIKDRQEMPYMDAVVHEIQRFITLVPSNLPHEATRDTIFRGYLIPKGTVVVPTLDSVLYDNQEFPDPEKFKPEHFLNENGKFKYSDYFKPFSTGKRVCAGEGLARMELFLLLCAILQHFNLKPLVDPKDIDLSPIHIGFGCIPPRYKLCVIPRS
# T4 sequence (P33261 whole entry): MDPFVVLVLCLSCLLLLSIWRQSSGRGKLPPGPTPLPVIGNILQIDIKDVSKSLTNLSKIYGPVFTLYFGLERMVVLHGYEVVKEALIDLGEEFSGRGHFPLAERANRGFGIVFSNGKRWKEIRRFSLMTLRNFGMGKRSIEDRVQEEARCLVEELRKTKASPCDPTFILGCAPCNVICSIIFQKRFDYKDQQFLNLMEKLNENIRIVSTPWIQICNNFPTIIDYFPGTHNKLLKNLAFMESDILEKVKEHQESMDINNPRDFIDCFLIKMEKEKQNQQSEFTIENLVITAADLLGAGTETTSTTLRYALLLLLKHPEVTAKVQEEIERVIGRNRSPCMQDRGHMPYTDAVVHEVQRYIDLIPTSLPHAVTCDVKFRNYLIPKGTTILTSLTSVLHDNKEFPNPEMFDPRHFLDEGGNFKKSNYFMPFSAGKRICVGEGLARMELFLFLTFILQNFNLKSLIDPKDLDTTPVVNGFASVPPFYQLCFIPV
# T3 sequence (P11509 whole entry): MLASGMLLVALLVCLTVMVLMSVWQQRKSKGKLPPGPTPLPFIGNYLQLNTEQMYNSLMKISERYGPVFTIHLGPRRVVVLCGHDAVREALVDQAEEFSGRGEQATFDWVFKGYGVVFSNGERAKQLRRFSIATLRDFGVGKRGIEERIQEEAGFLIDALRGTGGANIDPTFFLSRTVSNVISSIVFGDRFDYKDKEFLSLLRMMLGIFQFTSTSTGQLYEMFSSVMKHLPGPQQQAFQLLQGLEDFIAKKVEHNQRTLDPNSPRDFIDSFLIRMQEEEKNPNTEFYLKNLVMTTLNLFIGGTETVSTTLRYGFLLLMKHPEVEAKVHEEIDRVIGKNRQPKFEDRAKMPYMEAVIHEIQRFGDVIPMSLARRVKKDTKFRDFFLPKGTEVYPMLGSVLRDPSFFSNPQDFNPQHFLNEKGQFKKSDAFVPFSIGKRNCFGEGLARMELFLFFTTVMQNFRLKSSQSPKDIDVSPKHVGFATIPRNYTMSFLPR
# T7 sequence (P10632 whole entry): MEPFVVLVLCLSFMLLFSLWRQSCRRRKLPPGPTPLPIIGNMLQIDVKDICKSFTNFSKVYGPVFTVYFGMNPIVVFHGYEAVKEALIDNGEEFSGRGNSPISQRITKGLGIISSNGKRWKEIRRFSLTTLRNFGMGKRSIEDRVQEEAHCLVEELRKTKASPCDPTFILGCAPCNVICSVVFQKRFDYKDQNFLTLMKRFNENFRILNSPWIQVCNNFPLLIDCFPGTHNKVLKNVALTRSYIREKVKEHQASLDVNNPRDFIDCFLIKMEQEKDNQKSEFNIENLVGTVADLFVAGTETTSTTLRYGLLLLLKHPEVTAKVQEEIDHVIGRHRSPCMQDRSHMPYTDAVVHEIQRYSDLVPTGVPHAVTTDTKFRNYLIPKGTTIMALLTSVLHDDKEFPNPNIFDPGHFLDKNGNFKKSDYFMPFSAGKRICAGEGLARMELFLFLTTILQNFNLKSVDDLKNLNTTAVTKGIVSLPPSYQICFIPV
compound,measurement,setting,value
COc1nc(OC(F)(F)F)c(NC(=O)C2CCC3C4CN(C(=O)OC(C)(C)C)C5=CC(=O)CC[C@]5(C)C4CC[C@]23C)cc1Br (stereo partly drawn) [Compound 107],"Remaining Percentage with NADPH, 0 min",[1]; 0 h,100.00%
same,"Remaining Percentage with NADPH, 15 min",[1]; 0.25 h,93.28%
same,"Remaining Percentage with NADPH, 30 min",[1]; 0.5 h,79.18%
same,"Remaining Percentage with NADPH, 45 min",[1]; 0.75 h,71.86%
same,"Remaining Percentage with NADPH, 60 min",[1]; 1 h,65.13%
same,IC50 at 3 days,in vitro [2],> 30 µM
same,inhibition at 10 µM,CYP2E1,0%
same,inhibition at 10 µM,CYP2C9,33.1%
same,inhibition at 10 µM,CYP2A6,16.5%
same,inhibition at 10 µM,CYP2C19,65.3%
same,inhibition at 10 µM,CYP2D6,4.4%
same,inhibition at 10 µM,CYP2B6,0%
same,inhibition at 10 µM,CYP2C8,39.7%
same,inhibition at 10 µM,CYP1A2,0%
same,IC50 at 3 days,in vitro [3],> 30 µM
same,t1/2 Lung PO,"Lung tissue distribution; PO 5 mg/kg, lung, 5 mg/kg",5.82 h
same,half-life,"Lung tissue distribution; male, CD-1, mouse, lung, iv, 1 mg/kg, t1/2 Lung IV, IV 1 mg/kg",6.88 h
same,half-life,"Lung tissue distribution; male, CD-1, mouse, lung, po, 5 mg/kg, t1/2 Lung PO, PO 5 mg/kg",5.8 h
same,Kp,"Lung tissue distribution; male, CD-1, mouse, lung/plasma, po, 5 mg/kg",1.74
same,MIC,"[4]; Mycobacterium tuberculosis, INH with 15 μM 6-azasteroid, read-out: LORA MIC of INH",0.75 µM
same,activity under low oxygen conditions,[4]; in combination with isoniazid,active
same,MBC,M. tuberculosis,3 µM
same,"efflux ratio at 2 h, 5 μM","in vitro [5]; Caco-2, pH 7.4, Efflux Ratio",> 1.06
same,"recovery at 2 h, 5 μM","in vitro [5]; Caco-2, pH 7.4, Recovery (%) BL-AP",63.4%
same,Efflux Ratio,Caco-2 cell line,0.71
same,Recovery (%) BL-AP,Caco-2 cell line,58.07%
same,half-life,in vivo [6],~7 h
same,Tmax,"in vivo [6]; po, 5 mg/kg",1 h
same,IC50 at 3 days,in vitro [7],> 30 µM
same,Tmax,"in vivo [8]; iv, 1 mg/kg",0.0833 h
same,Tmax,"in vivo [8]; po, 5 mg/kg",1 h
same,inhibition at 10 µM,"CYP3A4; 107 at 10 μM, either midazolam or testosterone as substrate, read-out: inhibition of CYP 3A4",30%
same,inhibition at 10 µM,"CYP3A4; at 10 μM, midazolam as substrate, read-out: % Inhibition 3A4 (midazolam)",30.4%
same,inhibition at 10 µM,"CYP3A4; at 10 μM, testosterone as substrate, read-out: % Inhibition 3A4 (testosterone)",30.5%
same,IC50,"CYP3A4; both substrates (midazolam, testosterone), tested 10 nM to 50 μM, read-out: CYP 3A4 IC50",> 50 µM
same,half-life at 2 μM,[9],1.54 h
same,IC50 at 3 days,in vitro [10],> 30 µM
same,CLint scaled at 2 μM,in vitro [11],18.8 mL/min/kg
same,microsomal CLint at 2 μM,in vitro [11],15 µL/min/mg
same,hERG inhibition,hERG; at 30 μM,No hERG inhibition was observed
same,IC50,hERG; hERG stably expressed HEK 293 cells,> 30 µM
same,inhibition at 30 mM,"hERG; human, HEK 293 cells stably expressing hERG, at 30 mM",34.1%
same,Isoniazid MIC shift,Mtb,++ (4-8-fold ++)
same,half-life,"[12]; iv, 1 mg/kg",6.75 h
same,half-life,"[12]; po, 5 mg/kg",4.98 h
